Measurements published in the supplement of paper PMC8882468.

Experiments:
Assay in all cases: CTG-3D luminescence at 96 h relative to day-0 seeding control (ratio to day 0); higher = more growth / less cytotoxicity; PDxO 3D drug screen (set 2), 96 h, CTG-3D normalised to day-0 seeding control.
HCI-002 = test system: HCI-002 (organoid from a triple-negative breast cancer xenograft)
HCI-024 = test system: HCI-024 (organoid from a breast cancer xenograft)
HCI-019 = test system: HCI-019 (organoid from a triple-negative breast cancer xenograft)
HCI-023 = test system: HCI-023 (organoid from a triple-negative breast cancer xenograft)
HCI-027 = test system: HCI-027 (organoid from a triple-negative breast cancer xenograft)

CS(=O)(=O)CCNCc1ccc(-c2ccc3ncnc(Nc4ccc(OCc5cccc(F)c5)c(Cl)c4)c3c2)o1 [lapatinib]
CTG-3D luminescence at 96 h
Conditions	12.5 pM	0.00025 µM	0.005 µM	0.1 µM	1 µM	10 µM	100 µM	625 fM
HCI-002, days in culture: 127	2.38	2.9	2.7	3.41	2.39	1.07	0.00596	2.75
HCI-002, days in culture: 155	5.69	4.91	5.49	7.04	4.12	0.801	-0.00284	4.59
HCI-002, days in culture: 168	3.63	3.77	3.93	3.54	3.53	1.01	-0.0013	3.8
HCI-019, days in culture: 173	1.7	2.33	1.14	2.61	1.9	0.415	0.078	1.93
HCI-019, days in culture: 194	1.47	2.84	1.45	2.84	1.7	0.531	0.0607	2.78
HCI-019, days in culture: 215	1.96	2.03	1.85	1.67	1.66	0.323	0.00321	2.07
HCI-023, days in culture: 223	1.82	2.13	1.85	2.09	1.46	0.716	0.00541	1.72
HCI-023, days in culture: 238	1.38	1.57	1.41	1.6	1.91	0.911	0.00517	1.57
HCI-023, days in culture: 252	2.21	2.11	1.77	1.94	1.86	1.14	0.00206	1.9
HCI-024, days in culture: 202	1.02	1.45	1.36	0.838	0.917	0.832	0.0105	1.54
HCI-024, days in culture: 231	0.876	1.18	1.07	1.57	1.44	0.512	0.00851	1.39
HCI-024, days in culture: 254	1.47	0.96	1.64	2.25	1.02	0.584	0.0095	1.76
HCI-027, days in culture: 145	1.6	2.25	1.81	1.29	0.739	0.0785	0.00359	2.05
HCI-027, days in culture: 158	1.68	2.65	3.39	2.02	2.72	0.902	0.00689	5.17
HCI-027, days in culture: 164	2.91	1.7	1.91	1.36	1.57	0.126	0.00219	1.64
HCI-027, days in culture: 176	4.02	2.45	1.33	2.41	1.57	0.0427	0.00427	1.78
HCI-027, days in culture: 186	1.46	2.11	2.88	2.74	0.49	0.0763	0.00176	2.77

Nc1cc(C(F)(F)F)c(-c2cc(N3CCOCC3)nc(N3CCOCC3)n2)cn1 [buparlisib]
CTG-3D luminescence at 96 h
Conditions	12.5 pM	0.00025 µM	0.005 µM	0.1 µM	1 µM	10 µM	100 µM	625 fM
HCI-002, days in culture: 127	2.59	2.87	2.94	3.16	2.14	0.496	0.461	2.98
HCI-002, days in culture: 155	5.8	5.75	6.05	5.13	3.11	0.466	0.411	4.41
HCI-002, days in culture: 168	3.25	3.53	3.92	2.96	2.25	0.309	0.241	4.04
HCI-019, days in culture: 173	2.34	1.59	2.11	1.58	1.45	0.425	0.353	1.61
HCI-019, days in culture: 194	1.92	1.72	2.05	2.27	0.78	0.454	0.358	3.95
HCI-019, days in culture: 215	1.75	1.27	1.46	1.85	0.763	0.382	0.188	1.2
HCI-023, days in culture: 223	2.1	2.58	1.97	2.26	0.929	0.895	1.04	2.64
HCI-023, days in culture: 238	1.41	1.77	1.57	1.4	1.23	0.672	0.628	1.46
HCI-023, days in culture: 252	2.06	2.07	1.65	2.23	1.58	0.8	0.794	2.06
HCI-024, days in culture: 202	0.94	1.8	0.863	1.75	0.649	0.995	0.453	1.69
HCI-024, days in culture: 231	0.962	1.28	0.905	1.7	0.751	0.659	0.357	1.23
HCI-024, days in culture: 254	1.89	0.93	0.779	1.12	1.08	0.637	0.959	2.39
HCI-027, days in culture: 145	1.54	1.52	1.25	1.43	0.692	0.328	0.299	2.3
HCI-027, days in culture: 158	2.38	2.8	2.6	2.57	0.949	0.818	0.172	2.61
HCI-027, days in culture: 164	1.85	1.65	1.59	2.16	0.625	0.478	0.612	1.57
HCI-027, days in culture: 176	4.08	3.24	0.833	1.54	0.26	0.384	0.144	2.31
HCI-027, days in culture: 186	1.86	1.61	2.44	1.65	0.528	0.223	0.169	2.21

CO[C@H]1C[C@@H]2CC[C@@H](C)[C@@](O)(O2)C(=O)C(=O)N2CCCC[C@H]2C(=O)O[C@H]([C@H](C)C[C@@H]2CC[C@@H](O)[C@H](OC)C2)CC(=O)[C@H](C)/C=C(\C)[C@@H](O)[C@@H](OC)C(=O)[C@H](C)C[C@H](C)/C=C/C=C/C=C/1C [rapamycin]
CTG-3D luminescence at 96 h
Conditions	12.5 pM	0.00025 µM	0.005 µM	0.1 µM	1 µM	10 µM	100 µM	625 fM
HCI-002, days in culture: 127	1.89	1.99	1.94	2.24	1.85	2.01	0.0264	2.17
HCI-002, days in culture: 155	3.33	3.32	3.3	3.82	2.76	2.89	0.0206	3.05
HCI-002, days in culture: 168	2.98	2.48	2.66	2.27	2.64	2.56	0.0148	3.57
HCI-019, days in culture: 173	1.07	0.905	0.844	1.93	1.36	1.43	0.0117	1.08
HCI-019, days in culture: 194	1.66	1.04	1.1	0.588	1.28	1.54	0.0107	2.69
HCI-019, days in culture: 215	1.12	0.5	0.486	1.15	0.713	0.457	0.00468	1.43
HCI-023, days in culture: 223	1.62	1.63	1.09	1.99	0.95	1.49	0.0136	2.02
HCI-023, days in culture: 238	1.36	1.16	0.919	1.42	1.46	1.5	0.0105	1.26
HCI-023, days in culture: 252	1.76	1.4	1.31	1.72	1.32	1.8	0.00661	1.58
HCI-024, days in culture: 202	1.07	1.14	0.789	1.11	0.752	1.36	0.00983	1.53
HCI-024, days in culture: 231	1.39	1.11	1.27	0.84	0.989	0.927	0.00464	1.06
HCI-024, days in culture: 254	1.73	0.635	1.21	0.879	0.958	1.05	0.00976	3.42
HCI-027, days in culture: 145	1.48	1.37	1.25	1.15	1.16	0.781	0.00647	1.5
HCI-027, days in culture: 158	1.19	1.63	1.42	2.35	1.1	2.43	0.0139	4.51
HCI-027, days in culture: 164	3.14	1.63	2.5	1.4	1.59	1.86	0.0163	1.82
HCI-027, days in culture: 176	3.28	2.48	0.934	2.11	1.69	1.25	0.00482	2.21
HCI-027, days in culture: 186	1.07	0.887	1.74	1.07	0.381	1.97	0.00722	0.992

CCOc1ccn(-c2ccc(F)cc2)c(=O)c1C(=O)Nc1ccc(Oc2ccnc(N)c2Cl)c(F)c1 [ASLAN002]
CTG-3D luminescence at 96 h
Conditions	12.5 pM	0.00025 µM	0.005 µM	0.1 µM	1 µM	10 µM	100 µM	625 fM
HCI-002, days in culture: 127	2.57	3.09	2.93	3.28	2.8	2.96	1.67	2.9
HCI-002, days in culture: 155	4.58	5.63	6.16	6.6	5.32	3.84	1.94	4.85
HCI-002, days in culture: 168	3.23	3.24	4.54	3.38	4.12	2.92	0.58	3.92
HCI-019, days in culture: 173	2.03	1.61	1.52	3.51	1.6	1.16	1.12	1.28
HCI-019, days in culture: 194	1.11	1.59	0.978	1.46	0.851	0.875	1.1	1.75
HCI-019, days in culture: 215	1.3	0.756	1.22	1.28	2.09	0.724	0.591	1.91
HCI-023, days in culture: 223	1.5	2.83	1.7	2.8	1.5	1.49	1.03	1.61
HCI-023, days in culture: 238	1.66	1.62	1.17	1.42	1.76	1.05	0.917	1.58
HCI-023, days in culture: 252	1.99	1.93	1.78	2.01	2.08	1.47	1.15	2.04
HCI-024, days in culture: 202	1.14	1.03	1.19	1.27	0.701	1.41	0.658	1.61
HCI-024, days in culture: 231	0.919	1.2	1.13	1.05	1.25	1.02	0.471	1.06
HCI-024, days in culture: 254	2.48	0.889	0.968	1.46	1.85	1.96	1	2.45
HCI-027, days in culture: 145	1.36	2.38	1.99	2.27	1.53	1.16	0.692	1.71
HCI-027, days in culture: 158	2.07	1.82	2.16	2.7	1.65	2.11	1.35	4.78
HCI-027, days in culture: 164	1.59	1.98	3.29	1.48	1.84	1.29	0.787	1.91
HCI-027, days in culture: 176	3.7	2.85	1.77	1.65	2.11	1.09	0.699	2.39
HCI-027, days in culture: 186	2	1.38	1.53	2.45	0.755	0.892	0.737	2
